The target of data set [1] is T1, Coprinus cinereus peroxidase (CiP) (Coprinopsis cinerea, UniProt P28314).
T1 construct: made in house
T1 sequence (P28314 21-363): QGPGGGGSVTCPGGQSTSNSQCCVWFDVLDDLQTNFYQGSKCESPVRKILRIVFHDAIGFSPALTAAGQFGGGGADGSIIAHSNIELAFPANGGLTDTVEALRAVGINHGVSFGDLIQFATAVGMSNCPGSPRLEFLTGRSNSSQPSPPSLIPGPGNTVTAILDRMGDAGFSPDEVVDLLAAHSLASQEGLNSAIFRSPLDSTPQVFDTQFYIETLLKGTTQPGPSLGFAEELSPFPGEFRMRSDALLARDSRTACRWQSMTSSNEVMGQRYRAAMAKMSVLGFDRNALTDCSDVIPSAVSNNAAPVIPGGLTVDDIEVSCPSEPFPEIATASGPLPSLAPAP
In words: Initial bleaching of Direct Blue 1 by CiP with enhancer (Example 1). The format is biochemical. To be noted: 10 μM enhancer, 20 μM H2O2, 30° C., 610 nm. How it is done:
The initial bleaching of Direct Blue 1 (DB1) by CiP using a selection of enhancers according to the invention was compared to the half-life of the oxidized enhancer (electron acceptor) measured under standard conditions.
Conditions for bleaching:
200 μl 50 mM Britton-Robinson* buffer
pH 8.5 and 10.5, respectively
After 5 seconds the bleaching was followed for at least 1 minute, and the initial bleaching rates (reduction in milli-absorbance units per minute, -ΔmAbs/min, determined from the initial slope of the absorbance curve) were determined.

The target in another data set is T2, CiP (Coprinopsis cinerea, UniProt P28314).
T2 construct: made in house
T2 sequence (P28314 21-363): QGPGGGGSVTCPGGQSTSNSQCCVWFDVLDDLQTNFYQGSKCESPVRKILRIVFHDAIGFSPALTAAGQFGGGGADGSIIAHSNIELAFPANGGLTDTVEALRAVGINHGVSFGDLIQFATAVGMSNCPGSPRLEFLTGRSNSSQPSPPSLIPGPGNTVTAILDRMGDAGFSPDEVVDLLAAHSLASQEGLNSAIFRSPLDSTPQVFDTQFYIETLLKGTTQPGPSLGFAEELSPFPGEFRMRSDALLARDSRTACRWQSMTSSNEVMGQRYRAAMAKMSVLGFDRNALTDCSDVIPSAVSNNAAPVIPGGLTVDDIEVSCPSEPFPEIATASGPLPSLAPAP
Kind of data set: Apparent kinetic constants for oxidation of enhancer by CiP (Example 9). Format: biochemical, Coprinus cinereus. To be noted: pH 8.5, 30° C.; for Kcat (app.): turnover number calculated as Vmax/[CiP]o. As for the experimental part:
(§1) The apparent kinetic constants for the oxidation of some of the enhancers of the invention, 10-ethyl-4-phenothiazinecarboxylic acid (EPC) and 10-phenothiazinepropionic acid (PTP), were determined using CiP (4nM for PTP and 3.1 nM for EPC), borate buffer (10 mM) pH 8.5, H2 O2 (50 μM) and varied concentrations of enhancer, 30° C. Formation of oxidized enhancer was monitored at 514 nm.
(§2) When Kcat (app.) is defined as the turnover number calculated as
(§3) Vmax /[CiP]o, where [CiP]o is the initial concentration of […]

A short description of data set [2]: Decay of oxidized vanillin and 7-hydroxycoumarin from cyclic voltammograms (Example 7). The conditions noted are these: enhancer 2 mM; comparison of experimental with simulated voltammograms. The format is physicochemical. How it is done: The half-life of vanillin and 7-hydroxycoumarin was determined from cyclic voltammograms of the enhancers. The cyclic voltammograms were obtained in a three-electrode system consisting of
(§4) Working electrode Platinum disc
(§5) Counter electrode Platinum wire
(§6) Reference electrode Calomel
The concentration of the enhancers was 2 mM.
The order of the decay reaction of the oxidized enhancers was determined from the dependence of the peak position of the oxidizing peak (Epo) on the scan rate (.nu.). For both enhancers (δEpo /δlog.nu.)=0.019 V in the scan rate range 0.1-1.0 V/s showing that the decay reaction is 2nd order.
The rate constant of the decay reaction of the oxidized enhancers was determined from a comparison of the experimental cyclic voltammograms with simulated voltammograms. The parameters needed for the simulation are the reaction order of the decay reaction, the concentration of the enhancer, the scan rate […] the rate constant for the decay reaction as described in Analytical Chemistry, Vol. 60, p. 1159, 1988.

For data set [3] the following is noted: ESR. How it is done: The stability of the ABTS radical formed by oxidation of ABTS with a recombinantly produced Coprinus cinereus peroxidase (rCiP), obtained according to Example 1, was studied by electron spin resonance technique (ESR). The ESR signal was calculated after 20 scans, where the area under curve corresponds to the concentration of the radical. The signal was integrated from 3260 Gaus to 3300 Gaus.
The stability of the radical was determined in 0.1M Britton & Robinson buffer at different pH values. A concentration of 2.27 mM H2 O2 and an enzyme concentration 34 PODU/ml was applied.
The half-lives in Table 3 measured at different concentrations have for comparison been calculated to a concentration of 250 μM assuming a 2nd order decay.

Data set [4] is described as follows: Half-life of oxidized enhancer from cyclic voltammogram (Example 1). The conditions noted are these: pH 10.5, enhancer 8 mM. Format: physicochemical. How it is done:
The half-life of the oxidized enhancers were determined from a cyclic voltammogram of the enhancers present at a concentration of 8 mM. The cyclic voltammograms were obtained in a standard three-electrode system consisting of
as §4, §5, §6
The half-life (t1/2) of the oxidized enhancers was calculated from the scan rates (.nu.), peak positions and switching potential in a cyclic voltammogram in which the peak current of the reducing peak had half the value of the peak current of the oxidizing peak. [formula] ΔE is the difference of the peak position of the reducing peak and the switching potential.
The switching potential was fixed at a potential 0.2 V higher than the peak position of the oxidizing peak in a reversible voltammogram. A reversible voltammogram is obtained at scan rates at which the difference between the peak positions of the oxidizing and reducing peak approaches 0.059 V.

The nature of data set [5]: Half-life of benzidine derivatives by cyclic voltametri (Example 8). Format: physicochemical. To be noted: CV in DMF/H2O buffer (1/9), 2 mM, two electron transfer. How it is done:
The half-life of the different benzidine derivatives was measured by cyclic voltametri (CV) in DMF/H2 O buffer (1/9) at pH 8.5 and 10.5 as described in. The concentration of the benzidines were 2 mM, and the half-life (t1/2) of the compounds is referring to a two electron transfer.

Substrate in data set [6]: O=C(O)CCN1c2ccccc2Sc2ccccc21
In words: Apparent kinetic constants for oxidation of enhancer by CiP (Example 9). Format: biochemical, Coprinus cinereus. The conditions noted are these: other: CiP 4 nM for PTP, 3.1 nM for EPC, borate buffer 10 mM pH 8.5, 50 μM H2O2, 30° C., 514 nm. As for the experimental part: as §1, §2, §3

Substrate in data set [7]: CCN1c2ccccc2Sc2c(C(=O)O)cccc21
Described as above. Format: biochemical, Coprinus cinereus. To be noted: other: CiP 4 nM for PTP, 3.1 nM for EPC, borate buffer 10 mM pH 8.5, 50 μM H2O2, 30° C., 514 nm. As for the experimental part:
as §1, §2, §3

Like-named read-outs stand apart in the source and are kept apart here.

As for `O=C(O)CCN1c2ccccc2Sc2ccccc21` [10-phenothiazine propionic acid, 10-phenothiazinepropionic acid], the “bleaching (initial bleaching of Direct Blue 1)” value (from here on “bleaching”) in data set [1] (pH 8.5, 2 nM CiP) was 486 -ΔmAbs/min. The “bleaching” value in data set [1] (pH 10.5, 1 nM CiP) is 468 -ΔmAbs/min. On CiP, the “1/kcat (app.)” value is ~ 1.5 ms and the “Kcat (app.)” value was 671 ± 124 s⁻¹.

Consider `COc1cc(C=O)ccc1O` [vanillin], for which the “rate constant for the decay reaction of the oxidized enhancer” value in data set [2] was ~10^8 M^-1 s^-1.

Consider `CC(=O)c1ccc2c(c1)N(C)c1ccccc1S2` [2-acetyl-10-methyl-phenothiazine], for which the “bleaching” value in data set [1] (pH 8.5, 2 nM CiP) is 27 -ΔmAbs/min; in data set [1] (pH 10.5, 1 nM CiP), 25 -ΔmAbs/min.

With `CN1c2ccccc2Sc2ccccc21` [10-methyl-phenothiazine], the “bleaching” value is listed as 240 -ΔmAbs/min in data set [1] (pH 8.5, 2 nM CiP) and 480 -ΔmAbs/min in data set [1] (pH 10.5, 1 nM CiP).

Regarding `COC(=O)CCN1c2ccccc2Sc2ccccc21` [methyl-10-phenothiazine-propionate], the “bleaching” value in data set [1] (pH 8.5, 2 nM CiP) is 72 -ΔmAbs/min; in data set [1] (pH 10.5, 1 nM CiP), 99 -ΔmAbs/min.

As for `O=c1ccc2ccc(O)cc2o1` [7-hydroxycoumarin], the “rate constant for the decay reaction of the oxidized enhancer” value in data set [2] was ~10^8 M^-1 s^-1.

Turning to `CCn1c(=NN=c2sc3cc(S(=O)(=O)O)ccc3n2CC)sc2cc(S(=O)(=O)O)ccc21` [ABTS, 2,2'-azino-bis (3-ethylbenzothiazoline-6-sulfonate)], the “t1/2 of ABTS radical” value in data set [3] (pH 3, initial concentration 0.45 mM, 0.1M Britton & Robinson buffer) is listed as 83 h; in data set [3] (pH 4, initial concentration 0.45 mM), 66 h; in data set [3] (pH 6, initial concentration 0.45 mM) it was 6.75 h; in data set [3] (pH 7, initial concentration 0.24 mM), 1.4 h; in data set [3] (pH 8.7, initial concentration 0.24 mM), 0.67 h.

`CCN1c2ccccc2Sc2c(C(=O)O)cccc21` [10-ethyl-4-phenothiazine-carboxylic acid, 10-ethyl-4-phenothiazinecarboxylic acid]: the “bleaching” value in data set [1] (pH 8.5, 2 nM CiP) is 816 -ΔmAbs/min. Moreover, in data set [1] (pH 10.5, 1 nM CiP), the “bleaching” value is 864 -ΔmAbs/min. Moreover, the “t1/2 (half-life of the oxidized enhancer)” value in data set [4] stood at 2.5 s. On CiP, the “1/kcat (app.)” value was ~ 1 ms and the “Kcat (app.)” value was 997 ± 64 s⁻¹.

For the molecule `Cc1cc(-c2cc(C)c(N)c(C)c2)cc(C)c1N` [3,3',5,5'-tetramethyl-benzidine, 3,3',5,5'-tetramethylbenzidine], the “t1/2 (half-life of oxidized enhancer)” value was 4.5 s in data set [5] (pH 8.5) and 5 s in data set [5] (pH 10.5).

B1: CiP (Coprinopsis cinerea) (protein)
chain: QGPGGGGSVTCPGGQSTSNSQCCVWFDVLDDLQTNFYQGSKCESPVRKILRIVFHDAIGFSPALTAAGQFGGGGADGSIIAHSNIELAFPANGGLTDTVEALRAVGINHGVSFGDLIQFATAVGMSNCPGSPRLEFLTGRSNSSQPSPPSLIPGPGNTVTAILDRMGDAGFSPDEVVDLLAAHSLASQEGLNSAIFRSPLDSTPQVFDTQFYIETLLKGTTQPGPSLGFAEELSPFPGEFRMRSDALLARDSRTACRWQSMTSSNEVMGQRYRAAMAKMSVLGFDRNALTDCSDVIPSAVSNNAAPVIPGGLTVDDIEVSCPSEPFPEIATASGPLPSLAPAP
notes: made in house
With B1, the Michaelis-Menten constant (Km) amounted to 53 µM in data set [6] and 31 µM in data set [7].
